From ChEMBL document CHEMBL5096221, “Discovery of a Highly Potent and Orally Bioavailable STAT3 Dual Phosphorylation Inhibitor for Pancreatic Cancer Treatment” (J Med Chem, 2022) come the findings set out here.

Data set [1] addresses Signal transducer and activator of transcription 3 (Homo sapiens, UniProt P40763). Description: Inhibition of STAT3 in human HEK293T cells assessed as inhibition of IL-6 stimulated STAT3 phosphorylation by dual-luciferase reporter assay. It is filed as cell-based. Background: A reporter such as luciferase makes a cellular process visible.
Data set [2] in a line: Inhibition of ATP production in human BXPC-3 cells incubated for 20 to 24 hrs by ATP assay kit method. In kind it is functional, cell-based.
The subject of data set [3] is BXPC-3. In words: Anti-proliferative activity against human BXPC-3 cells assessed as cell growth inhibition incubated for 72 hrs by MTS assay. It is filed as functional, cell-based. The conditions noted are these: BXPC-3, 72 h. Background: Tetrazolium assays rely on reduction of a dye to a coloured formazan, in cell work by metabolically active cells.
The test system of another data set is Capan-2. Description: Anti-proliferative activity against human Capan-2 cells assessed as cell growth inhibition incubated for 72 hrs by MTS assay. In kind it is functional, cell-based. Particulars: Capan-2, 72 h.
The nature of data set [4]: Microsomal stability in human liver microsomes assessed as half life incubated upto 40 mins in presence of NADPH by LC-MS/MS analysis. In kind it is ADME, Microsome. (Liver microsomes are vesicles of endoplasmic reticulum, rich in cytochrome P450 enzymes.)
The nature of data set [5]: Microsomal stability in rat liver microsomes assessed as half life incubated upto 40 mins in presence of NADPH by LC-MS/MS analysis. In kind it is ADME, Microsome.
Data set [6] in a line: Microsomal stability in dog liver microsomes assessed as half life incubated upto 40 mins in presence of NADPH by LC-MS/MS analysis. In kind it is ADME, Canis lupus familiaris, Microsome.
Data set [7] is described as follows: Microsomal stability in human liver microsomes assessed as intrinsic clearance incubated upto 40 mins in presence of NADPH by LC-MS/MS analysis. In kind it is ADME, Microsome. Particulars: read-out: CLH.
A short description of data set [8]: Microsomal stability in rat liver microsomes assessed as intrinsic clearance incubated upto 40 mins in presence of NADPH by LC-MS/MS analysis. In kind it is ADME, Microsome. The conditions noted are these: read-out: CLH.
The nature of data set [9]: Microsomal stability in dog liver microsomes assessed as intrinsic clearance incubated upto 40 mins in presence of NADPH by LC-MS/MS analysis. In kind it is ADME, Canis lupus familiaris, Microsome. Particulars: read-out: CLH.
Data set [10] in a line: Microsomal stability in human liver microsomes assessed as compound remaining incubated for 60 mins in presence of NADPH by LC-MS/MS analysis. Particulars: read-out: Stability. It is filed as ADME, Microsome.
Data set [11] in a line: Microsomal stability in rat liver microsomes assessed as compound remaining incubated for 60 mins in presence of NADPH by LC-MS/MS analysis. It is filed as ADME, Microsome. The conditions noted are these: read-out: Stability.
The nature of data set [12]: Microsomal stability in dog liver microsomes assessed as compound remaining incubated for 60 mins in presence of NADPH by LC-MS/MS analysis. The conditions noted are these: read-out: Stability. It is filed as ADME, Canis lupus familiaris, Microsome.
Another data set deals with T1, Cytochrome P450 1A2 (Homo sapiens, UniProt P05177).
T1 sequence (P05177 whole entry): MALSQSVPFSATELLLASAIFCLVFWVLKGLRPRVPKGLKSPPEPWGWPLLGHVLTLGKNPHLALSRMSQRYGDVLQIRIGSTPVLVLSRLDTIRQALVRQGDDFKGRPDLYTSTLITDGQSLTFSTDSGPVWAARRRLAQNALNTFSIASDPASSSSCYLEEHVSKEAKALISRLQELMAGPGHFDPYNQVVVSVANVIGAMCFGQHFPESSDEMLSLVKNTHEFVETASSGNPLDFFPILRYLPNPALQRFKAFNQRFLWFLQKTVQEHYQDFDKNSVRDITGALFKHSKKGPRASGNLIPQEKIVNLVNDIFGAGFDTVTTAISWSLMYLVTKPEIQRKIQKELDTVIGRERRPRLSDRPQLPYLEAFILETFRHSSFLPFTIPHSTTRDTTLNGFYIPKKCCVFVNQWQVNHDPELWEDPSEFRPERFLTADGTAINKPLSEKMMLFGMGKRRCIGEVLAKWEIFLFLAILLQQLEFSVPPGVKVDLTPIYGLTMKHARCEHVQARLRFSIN
Description: Inhibition of CYP1A2 in human liver microsomes using phenacetin as substrate incubated for 30 mins in presence of NADPH by HPLC analysis. In kind it is ADME, Microsome.

In a further data set the target is Cytochrome P450 2C9 (Homo sapiens, UniProt P11712). Description: Inhibition of CYP2C9 in human liver microsomes using tolbutamide as substrate incubated for 60 mins in presence of NADPH by HPLC analysis. In kind it is ADME, Microsome.
Cytochrome P450 2C9, sequence (P11712 whole entry): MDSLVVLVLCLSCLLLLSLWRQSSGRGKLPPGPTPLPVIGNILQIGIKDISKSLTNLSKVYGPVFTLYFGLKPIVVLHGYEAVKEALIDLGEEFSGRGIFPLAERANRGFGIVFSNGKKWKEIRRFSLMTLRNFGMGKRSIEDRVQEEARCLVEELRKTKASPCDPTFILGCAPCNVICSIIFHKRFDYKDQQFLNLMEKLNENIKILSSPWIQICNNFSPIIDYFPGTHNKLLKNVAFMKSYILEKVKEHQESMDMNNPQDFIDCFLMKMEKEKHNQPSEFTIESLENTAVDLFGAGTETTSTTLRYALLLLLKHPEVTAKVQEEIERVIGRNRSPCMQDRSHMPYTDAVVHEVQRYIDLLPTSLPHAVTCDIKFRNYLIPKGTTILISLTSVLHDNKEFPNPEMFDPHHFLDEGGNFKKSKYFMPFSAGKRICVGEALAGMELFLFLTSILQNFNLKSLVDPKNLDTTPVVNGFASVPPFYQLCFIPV
For another data set, the target named is Cytochrome P450 2C19 (Homo sapiens, UniProt P33261). Description: Inhibition of CYP2C19 in human liver microsomes. It is filed as ADME, Microsome.
Cytochrome P450 2C19, sequence (P33261 whole entry): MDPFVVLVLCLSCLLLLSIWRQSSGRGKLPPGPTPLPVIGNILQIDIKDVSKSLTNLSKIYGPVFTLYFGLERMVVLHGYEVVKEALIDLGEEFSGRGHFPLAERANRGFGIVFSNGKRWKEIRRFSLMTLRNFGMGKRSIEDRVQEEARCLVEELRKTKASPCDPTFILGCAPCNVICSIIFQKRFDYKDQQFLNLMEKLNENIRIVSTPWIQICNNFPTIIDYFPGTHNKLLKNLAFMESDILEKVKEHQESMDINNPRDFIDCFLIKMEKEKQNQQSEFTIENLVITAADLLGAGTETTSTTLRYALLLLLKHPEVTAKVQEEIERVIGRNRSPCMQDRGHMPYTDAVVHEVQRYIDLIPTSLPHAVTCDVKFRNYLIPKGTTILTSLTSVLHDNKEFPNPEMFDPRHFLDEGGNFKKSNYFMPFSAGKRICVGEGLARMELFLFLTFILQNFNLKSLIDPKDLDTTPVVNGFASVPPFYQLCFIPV
The target of another data set is Cytochrome P450 2D6 (Homo sapiens, UniProt P10635). In words: Inhibition of CYP2D6 in human liver microsomes using dextromethorphan as substrate incubated for 60 mins in presence of NADPH by HPLC analysis. In kind it is ADME, Microsome.
Cytochrome P450 2D6, sequence (P10635 whole entry): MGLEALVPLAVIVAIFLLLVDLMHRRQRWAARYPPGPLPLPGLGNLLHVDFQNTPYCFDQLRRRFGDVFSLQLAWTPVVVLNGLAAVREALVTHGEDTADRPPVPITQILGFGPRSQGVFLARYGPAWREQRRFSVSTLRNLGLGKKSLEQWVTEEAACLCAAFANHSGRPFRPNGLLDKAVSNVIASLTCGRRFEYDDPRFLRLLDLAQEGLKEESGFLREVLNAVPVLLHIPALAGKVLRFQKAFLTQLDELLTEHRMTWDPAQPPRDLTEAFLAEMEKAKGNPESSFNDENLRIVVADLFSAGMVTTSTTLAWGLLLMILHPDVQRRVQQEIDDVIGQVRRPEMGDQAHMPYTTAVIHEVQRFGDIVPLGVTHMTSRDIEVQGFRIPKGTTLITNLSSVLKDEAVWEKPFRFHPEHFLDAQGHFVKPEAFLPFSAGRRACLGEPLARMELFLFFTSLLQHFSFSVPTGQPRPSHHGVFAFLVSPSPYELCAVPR
Another data set addresses Cytochrome P450 3A4 (Homo sapiens, UniProt P08684). In words: Inhibition of CYP3A4 in human liver microsomes using testosterone as substrate in presence of NADPH by HPLC analysis. It is filed as ADME, Microsome.
Data set [13] in a line: Cmax in BALB/c mouse at 1 mg/kg,iv measured upto 24 hrs by LC-MS/MS analysis. In kind it is ADME, organism-based. On the set-up: dose 1 mg/kg, time < 24 hrs, route iv. The conditions noted are these: in vivo.
Data set [14] is described as follows: AUC (0-24hrs) in BALB/c mouse at 1 mg/kg,iv measured upto 24 hrs by LC-MS/MS analysis. On the set-up: time < 24 hrs, dose 1 mg/kg, route iv. The conditions noted are these: in vivo. In kind it is ADME, organism-based.
Data set [15] is described as follows: AUC (0-infinity) in BALB/c mouse at 1 mg/kg,iv measured upto 24 hrs by LC-MS/MS analysis. Particulars: in vivo. On the set-up: dose 1 mg/kg, time < 24 hrs, route iv. It is filed as ADME, organism-based.
Data set [16] can be described thus: Volume of distribution at steady state in BALB/c mouse at 1 mg/kg,iv measured upto 24 hrs by LC-MS/MS analysis. It is filed as ADME, organism-based. Particulars: in vivo, iv, 1 mg/kg, 24 h.
Data set [17] is described as follows: Clearance at steady state in BALB/c mouse at 1 mg/kg,iv measured upto 24 hrs by LC-MS/MS analysis. In kind it is ADME, organism-based. Particulars: in vivo, iv, 1 mg/kg, 24 h.
The nature of data set [18]: MRT (0 to last) in BALB/c mouse at 1 mg/kg,iv measured upto 24 hrs by LC-MS/MS analysis. It is filed as ADME, organism-based. Particulars: in vivo, iv, 1 mg/kg, 24 h.
Data set [19] is described as follows: Half life in BALB/c mouse at 1 mg/kg,iv measured upto 24 hrs by LC-MS/MS analysis. It is filed as ADME, organism-based. The conditions noted are these: in vivo.
Data set [20] is described as follows: Cmax in BALB/c mouse at 10 mg/kg,po measured upto 24 hrs by LC-MS/MS analysis. In kind it is ADME, organism-based. On the set-up: time < 24 hrs, dose 10 mg/kg, route po. Particulars: in vivo.
Data set [21] can be described thus: AUC (0-24hrs) in BALB/c mouse at 10 mg/kg,po measured upto 24 hrs by LC-MS/MS analysis. In kind it is ADME, organism-based. On the set-up: dose 10 mg/kg, time < 24 hrs, route po. The conditions noted are these: in vivo.
Data set [22] can be described thus: AUC (0-infinity) in BALB/c mouse at 10 mg/kg,po measured upto 24 hrs by LC-MS/MS analysis. It is filed as ADME, organism-based. On the set-up: time < 24 hrs, dose 10 mg/kg, route po. Particulars: in vivo.
Data set [23] is described as follows: MRT (0 to last) in BALB/c mouse at 10 mg/kg,po measured upto 24 hrs by LC-MS/MS analysis. The conditions noted are these: in vivo. In kind it is ADME, organism-based.
The nature of data set [24]: Half life in BALB/c mouse at 10 mg/kg,po measured upto 24 hrs by LC-MS/MS analysis. In kind it is ADME, organism-based. The conditions noted are these: in vivo.
A short description of data set [25]: Oral bioavailability in BALB/c mouse at 10 mg/kg,po measured upto 24 hrs by LC-MS/MS analysis. In kind it is ADME, organism-based. Particulars: in vivo.
Data set [26] concerns BXPC-3. Description: Antitumor activity against human BXPC-3 cells xenografted BALB/c mouse model assessed as tumor growth inhibition at 30 mg/kg,po administrated once daily for 8 weeks. In kind it is functional. Particulars: BXPC-3, 1344 h, read-out: TGI.
Data set [27] is described as follows: Toxicity in BALB/c mouse xenografted with human BXPC-3 cells assessed as body weight change at 30 mg/kg,po administrated once daily for 8 weeks. In kind it is organism-based. The conditions noted are these: in vivo, 1344 h.
Data set [28] is described as follows: Toxicity in BALB/c mouse xenografted with human BXPC-3 cells assessed as effect on heart at 30 mg/kg,po administrated once daily for 8 weeks by H and E staining based microscopic analysis. The conditions noted are these: in vivo, 1344 h. It is filed as organism-based.
Data set [29] is described as follows: Toxicity in BALB/c mouse xenografted with human BXPC-3 cells assessed as effect on liver at 30 mg/kg,po administrated once daily for 8 weeks by H and E staining based microscopic analysis. The conditions noted are these: in vivo, 1344 h. It is filed as organism-based.
A short description of data set [30]: Toxicity in BALB/c mouse xenografted with human BXPC-3 cells assessed as effect on spleen at 30 mg/kg,po administrated once daily for 8 weeks by H and E staining based microscopic analysis. In kind it is organism-based. The conditions noted are these: in vivo, 1344 h.
The nature of data set [31]: Toxicity in BALB/c mouse xenografted with human BXPC-3 cells assessed as effect on lung at 30 mg/kg,po administrated once daily for 8 weeks by H and E staining based microscopic analysis. It is filed as organism-based. Particulars: in vivo, 1344 h.
Data set [32] can be described thus: Toxicity in BALB/c mouse xenografted with human BXPC-3 cells assessed as effect on kidney at 30 mg/kg,po administrated once daily for 8 weeks by H and E staining based microscopic analysis. In kind it is organism-based. Particulars: in vivo, 1344 h.

Signal transducer and activator of transcription 3, sequence (P40763 whole entry): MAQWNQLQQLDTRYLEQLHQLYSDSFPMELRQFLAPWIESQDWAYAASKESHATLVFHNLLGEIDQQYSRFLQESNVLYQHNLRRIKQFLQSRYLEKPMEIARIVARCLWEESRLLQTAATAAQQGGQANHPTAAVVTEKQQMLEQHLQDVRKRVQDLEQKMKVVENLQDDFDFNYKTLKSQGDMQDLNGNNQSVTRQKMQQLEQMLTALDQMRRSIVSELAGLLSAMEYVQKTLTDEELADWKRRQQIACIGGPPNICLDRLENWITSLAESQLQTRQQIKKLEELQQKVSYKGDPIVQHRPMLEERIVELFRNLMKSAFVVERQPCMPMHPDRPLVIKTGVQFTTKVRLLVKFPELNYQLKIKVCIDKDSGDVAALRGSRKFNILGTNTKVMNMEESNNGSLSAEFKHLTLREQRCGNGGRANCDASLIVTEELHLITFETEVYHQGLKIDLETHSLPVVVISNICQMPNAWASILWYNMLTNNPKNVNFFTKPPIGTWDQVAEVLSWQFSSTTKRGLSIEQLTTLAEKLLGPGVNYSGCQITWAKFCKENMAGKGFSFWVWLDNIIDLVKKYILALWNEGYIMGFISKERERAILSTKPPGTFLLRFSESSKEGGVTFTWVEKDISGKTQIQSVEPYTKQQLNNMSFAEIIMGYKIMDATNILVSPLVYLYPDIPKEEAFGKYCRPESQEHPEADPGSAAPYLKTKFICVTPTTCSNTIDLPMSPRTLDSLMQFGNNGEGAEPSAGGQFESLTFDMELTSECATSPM
Cytochrome P450 3A4, sequence (P08684 whole entry): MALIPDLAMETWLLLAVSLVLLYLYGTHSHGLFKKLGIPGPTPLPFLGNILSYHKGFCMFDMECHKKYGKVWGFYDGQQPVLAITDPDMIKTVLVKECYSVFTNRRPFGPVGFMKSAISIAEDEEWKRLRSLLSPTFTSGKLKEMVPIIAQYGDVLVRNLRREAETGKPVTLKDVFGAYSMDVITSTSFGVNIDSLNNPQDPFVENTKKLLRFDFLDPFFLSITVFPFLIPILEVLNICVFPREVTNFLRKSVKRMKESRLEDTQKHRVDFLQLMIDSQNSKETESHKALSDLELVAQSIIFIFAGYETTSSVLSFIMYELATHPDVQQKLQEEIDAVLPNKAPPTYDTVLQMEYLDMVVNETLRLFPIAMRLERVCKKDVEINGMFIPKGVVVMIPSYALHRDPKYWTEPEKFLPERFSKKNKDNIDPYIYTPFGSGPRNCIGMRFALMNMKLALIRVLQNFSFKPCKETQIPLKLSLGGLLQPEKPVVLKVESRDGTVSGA

Usually IC50 stands for the point on the concentration scale where inhibition reaches its midpoint. The term half-life denotes the time needed for the level to fall by half in the phase considered. In general, Cmax refers to the highest concentration seen after dosing. One may read the AUC(0-t) as exposure summed from dosing to a finite time, without extrapolation to infinity. Read a high AUC(0-t) as more exposure. By AUC(0-inf) is commonly meant total exposure, with the tail of the curve extrapolated. High values mean high exposure, low ones low exposure. Usually Vdss stands for the apparent volume that relates the amount in the body to the concentration in plasma or blood. A higher Vdss goes with wide distribution into tissue. For orientation: MRT last means the average time that molecules of a dose stay in the body. A word on the bioavailability: it is dose-corrected exposure relative to a reference, in per cent. For `Cn1c(C(=O)N2CCN(Cc3ccc(OCC(F)(F)F)cc3)CC2)cc2ccc(Oc3cnc(-c4nc(-c5ccc(F)cc5)no4)cn3)cc21`, the IC50 in data set [1] was 0.0059 µM; in data set [2], 0.0024 µM; in the data set on BXPC-3 [3], 0.0014 µM; with Capan-2, 0.0064 µM; on Cytochrome P450 1A2, more than 50 µM; on Cytochrome P450 2C9 it was more than 50 µM. For the same molecule, the 50% inhibitory concentration (IC50) on Cytochrome P450 2C19, on Cytochrome P450 2D6 and at Cytochrome P450 3A4 was more than 50 µM in each case. In addition, the half-life is 1.22 h in [4]; 1.24 h in data set [5]; 1.07 h in data set [6]; 17.7 h in data set [19]; 13.9 h in data set [24]. In addition, the microsomal CLint was found to be 18.9 µL/min/mg in [7], 18.6 µL/min/mg in data set [8] and 21.5 µL/min/mg in data set [9]. Further, the remaining at 1 h in data set [10] was determined as 57.6%; in [11], 55.4%; in data set [12] it was 50.9%. Besides, the figures for the Cmax in data set [13] and in data set [20] were 2910 ng/mL and 669 ng/mL, respectively. Moreover, the AUC(0-t) at 24 h in data set [14] was 8680 ng·h/mL; in [21], 10900 ng·h/mL. Also, the AUC(0-inf) in data set [15] is 13800 ng·h/mL; in [22] it was 12300 ng·h/mL. In data set [16], this molecule had a Vdss of 3.7352 L/kg. Further, the CL in data set [17] came to 1.24 mL/min/kg. Further, the MRTlast in [18] was 15 h. Besides, in [23], the MRT last at 24 h came out at 15.6 h. This molecule also had a bioavailability in [25] of 12.5%.
As for `CC(=O)c1cc2c(o1)C(=O)c1ccccc1C2=O` [NAPABUCASIN], the values for the IC50 (in [2]; in the data set on BXPC-3 [3]; in the data set on Capan-2) were 1.96 µM, 5.31 µM and 1.59 µM, respectively. Further, in the data set with BXPC-3 [26], the inhibition in vivo at 30 mg/kg came to 26.1%. In addition, the Activity entry in [27], in [28], in data set [29], in data set [30], in [31] and in data set [32] was “Non-Toxic” in each case.
